# Measurements as given in patent publication EP2545917B1, “NOVEL EP4 AGONIST” (Kaken Pharmaceutical Co., Ltd., priority 2010, dated 2011).
# pKi: −log10 of the molar value.
# Tests used:
# [1] = system: dextran sodium sulfate-induced colitis; assay: Prophylactic effect on dextran sodium sulfate-induced colitis in rats; assay type: in vivo; settings: SD rats, 5.5 w/v% DSS, oral 1 mg/kg and 3 mg/kg once a day
# Procedure: Prophylactic effect of compound F on colitis was also studied in rats. Male SD rats, 7 weeks old, body weight around 210 g - 240 g (Charles River) were purchased, acclimated for 1 week and used for the study. Except the normal group, the rats were allowed to freely drink a DSS (MP Biochemicals, M.W. 36,000-50,000, Lot No. 4556J) solution prepared to 5.5 w/v% for 8 days to induce colitis. Compound F at doses of 0.3, 1 and 3 mg/kg was orally administered once a day, daily, from one day before the start day of DSS drinking to one day before autopsy (day 7). To the control group was orally administered a solvent (1 vol% ethanol solution) at 5 mL/kg.
# On day 8 from the start of DSS drinking, 1.25 w/v% Evans blue solution was administered at 0.2 mL/100 g from the tail vein. After 30 min, the rats were subjected to laparotomy under ether anesthesia and exsanguinated to death. Thereafter, the large intestine was dissected from just below the cecum to the anus, and the length was measured with a scale. […] The next day, the dry weight was measured, formamide (2 mL) was added, the dye was extracted at 50°C overnight, and the level thereof was measured at 620 nm. A standard curve was prepared using an Evans blue standard solution, and the amount (mg) of Evans blue in 1 g of the colonic tissue was calculated to estimate degree of colonic tissue injury. […]
# [2] = system: CD4+CD25- T cell transfer colitis; assay: Prophylactic effect on CD4+CD25- T cell transfer colitis model in mice; assay type: in vivo, C.B-17/Icr-scid mice; settings: scid mice, oral 1 mg/kg once a day for 20 days
# Procedure: Female BALB/cA Jcl mice, 6 weeks old, body weight 19 - 23 g (CLEA Japan, Inc.) and female C.B-17/Icr-scid mice (6 weeks old, CLEA Japan, Inc.) were purchased, acclimated for 1 week and used for the study. After laparotomy under ether anesthesia, BALB/cA Jcl mice were exsanguinated to death through the abdominal aorta and caudal vena cava, and the spleen was isolated. Splenocytes were prepared from the spleen and then CD4^+CD25^- T cells were prepared with a CD4^+ T cell Isolation Kit (No. 130-090-860, Milky Biotech Co., Ltd.) and CD25-Biotin antibody (No. 130-092-569, Milky Biotech Co., Ltd.). The cells were separated using the autoMACS Separator (Milky Biotech Co., Ltd.). The separated CD4^+CD25^- T cells were suspended in physiological phosphate buffer solution, and 2.5×10^5 cells per animal were intraperitoneally administered to C.B-17/Icr-scid mice to induce colitis. […] To the control group was orally administered a solvent (1 vol% ethanol solution) at 10 mL/kg. […] The fecal occult blood score was evaluated in the same manner as in Example 23. […] Eight to 10 mice were used for each group and the results were expressed as average.
# [3] = system: ethanol-induced gastric mucosal injury; assay: Ethanol-induced gastric mucosal injury model in rats; assay type: in vivo, SD rats
# Procedure: Male SD rats (7 weeks old, Charles River) were purchased through Oriental BioService Inc., acclimated for 1 week and used for the study. The rats were grouped based on the body weight, placed in a clean cage set with a wire mesh floor one day before the study, fasted for 19 hr (without water for last 3 hr), and orally administered with ethanol (special grade, Nacalai Tesque, Lot No. V8A5862, 1.5 mL) in all groups to induce gastric mucosal injury. Compound F was orally administered at doses of 0.01, 0.1 and 1 mg/kg 30 min before induction of gastric mucosal injury at a volume of 5 mL/kg. To the control group was orally administered a solvent (1 vol% ethanol solution) at 5 mL/kg in the same manner. Eight animals were used for each group.
# The rats were bled to death from the abdominal aorta and caudal vena cava under ether anesthesia after 1 hr from the ethanol administration, and the stomach was isolated. The isolated stomach was immediately filled with 2 vol% neutral formalin solution (6 mL) and fixed for 15 min. The stomach was incised along the midline of the greater curvature from the cardiac part to the pyloric part, and extended on a vinyl chloride board. The length and width of each ulcer were measured under a stereomicroscope, the area was calculated, and the sum thereof was taken as the total ulcer area.
# Human IP = target: T1, Human IP (Homo sapiens, UniProt P43119); assay: Receptor affinity, tritium-labeled iloprost binding to membranes of transfected COS-7 cells; settings: COS-7 cell membranes
# T1 construct: expressed in transfected cells; host or cells: COS-7
# T1 sequence (P43119 whole entry): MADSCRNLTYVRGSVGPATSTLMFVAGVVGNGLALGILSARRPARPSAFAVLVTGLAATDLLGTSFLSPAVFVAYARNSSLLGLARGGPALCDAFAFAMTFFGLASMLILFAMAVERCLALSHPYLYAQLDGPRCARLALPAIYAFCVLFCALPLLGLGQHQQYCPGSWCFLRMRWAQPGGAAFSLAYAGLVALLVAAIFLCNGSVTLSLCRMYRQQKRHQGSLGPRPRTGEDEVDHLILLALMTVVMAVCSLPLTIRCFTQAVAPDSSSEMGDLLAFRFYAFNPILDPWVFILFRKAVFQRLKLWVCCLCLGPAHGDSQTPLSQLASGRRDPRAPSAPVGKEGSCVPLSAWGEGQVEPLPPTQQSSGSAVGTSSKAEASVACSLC
# Procedure: PG receptor affinity of compound F and compound J of the present invention was evaluated. Compound F used was one synthesized in Example 9, and compound J was prepared by separating and purifying the compound synthesized in Example 14 with a column (the same preparations were used in the following Examples). COS-7 cells were transfected with the genes of mouse EP4, human EP1-4 or human IP to overexpress the receptor and then the cell membranes were collected. As a labeled ligand, tritium-labeled PGE2 was used for EPs; tritium-labeled iloprost, for IP. The dissociation constant Kd value was obtained and inhibition constant Ki value of each test compound was determined in a conventional method. As a reference control, PGE2 was used for EPs; beraprost sodium (BPS), for IP.
# [4] = system: indomethacin-induced small intestinal injury; assay: Indomethacin-induced small intestinal injury model in rats; assay type: in vivo, SD rats
# Procedure: Male SD rats, 7 weeks old (Charles River) were purchased, acclimated for 1 week and used for the study. The rats were grouped based on the body weight and subcutaneously ) administered with indomethacin (SIGMA, Lot No. 19F0018) at 15 mg/5 mL/kg to all groups to induce small intestinal injury. Compound F at doses of 0.01, 0.1 and 1 mg/kg was orally administered at a volume of 5 mL/kg 30 min before and 6 hr after the subcutaneous administration of indomethacin. To the control group was orally administered a solvent (1 vol% ethanol solution) at 5 mL/kg in the same manner. Eight animals were used for each group.
# The rats were intravenously administered with 2 mL of 10 mg/mL Evans blue solution under ether anesthesia 23.5 hr after the indomethacin administration. After 30 min, the rats were bled to death from the abdominal aorta and caudal vena cava under ether anesthesia and the small intestine was isolated. The isolated small intestine was filled with an adequate amount (about 35 mL) of 2 vol% neutral formalin solution, and fixed for about 15 min. Thereafter, the total small intestine was incised along the mesenteric attachment site, and extended on a vinyl chloride board. The length and width of each ulcer were measured under a stereomicroscope, the area was calculated, and the sum thereof was taken as the total ulcer area.
smiles,measurement,setting,value
"Cc1cccc([C@@H](C)[C@H](O)/C=C/[C@@H]2[C@@H]3[C@H](C[C@H]2O)O/C(=C\CCCc2nnn[nH]2)C3(F)F)c1 [Compound F, 4-[(Z)-(1S,5R,6R,7R)-6-[(1E,3R,4R)-3-hydroxy-4-(m-tolyl)-1-pentenyl]-7-hydroxy-2-oxa-4,4-difluoro-bicyclo[3.3.0]octan-3-ylidene]-1-(tetrazol-5-yl)butane]","effect on stool score, colonic tissue injury and shortening of the large intestine",[1],a suppressive tendency or significant suppressive effect on these events
same,DAI score,[2],comprehensively superior to prednisolone
same,effect on body weight decrease score,[2],prevented the increase in the body weight decrease score almost completely
same,effect on total ulcer area (stomach),[3]; oral 1 mg/kg 30 min before ethanol,almost completely reduced the area
same,effect on total ulcer area (stomach),"[3]; oral 0.01, 0.1 and 1 mg/kg 30 min before ethanol",significantly reduced the total ulcer area in a dose-dependent manner from 0.01 mg/kg
same,pKi,Human IP,6.17
same,effect on total ulcer area in the small intestine,[4]; oral 1 mg/kg 30 min before and 6 hr after indomethacin,completely reduced the area
same,effect on total ulcer area in the small intestine,"[4]; oral 0.01, 0.1 and 1 mg/kg 30 min before and 6 hr after indomethacin",significantly reduced the ulcer area in a dose-dependent manner from a dose of 0.1 mg/kg administration
